From patent US8415469B2, “Compounds and methods for kinase modulation, and indications therefor” (Plexxikon Inc., priority 2005, dated 2013)

Assays:
Assay type in all cases: biochemical
Irak4 = biological target: T1, Irak4 (Homo sapiens, UniProt Q9NWZ3); assay: Z'-Lyte FRET kinase assay (Invitrogen), Irak4; details: read-out: IC50, activity toward kinase Irak4
T1 construct: purchased Invitrogen (assay run by Invitrogen)
T1 sequence (Q9NWZ3 1-460): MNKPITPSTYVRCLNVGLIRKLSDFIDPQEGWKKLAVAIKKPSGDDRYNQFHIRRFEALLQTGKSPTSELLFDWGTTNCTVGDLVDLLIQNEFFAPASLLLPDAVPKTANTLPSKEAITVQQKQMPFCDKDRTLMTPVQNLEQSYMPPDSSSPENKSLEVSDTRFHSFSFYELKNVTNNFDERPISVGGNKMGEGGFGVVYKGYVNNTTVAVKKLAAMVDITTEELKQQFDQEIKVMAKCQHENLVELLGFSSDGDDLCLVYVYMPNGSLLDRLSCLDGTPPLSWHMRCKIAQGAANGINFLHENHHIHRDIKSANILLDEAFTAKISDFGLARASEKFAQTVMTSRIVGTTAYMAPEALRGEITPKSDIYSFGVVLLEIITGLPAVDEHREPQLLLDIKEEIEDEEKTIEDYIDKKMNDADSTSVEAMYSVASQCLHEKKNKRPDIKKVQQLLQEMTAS
Description: The effect of potential modulators of kinase activity can be measured in a variety of different assays known in the art. For example, direct radiometric, indirect FRET or AlphaScreen assays may be used to assess the level of phosphorylation of a substrate in the presence of test compounds in order to determine the inhibitory affect of the compound on the kinase. Invitrogen (Carlsbad, Calif.) uses a FRET based assay for Btk, EGFR, EphB2, Flt3, lrak4, Kdr, MAP2K1, MAPKAPK2, PDGFRB, PKC theta, Stk6 and Yes. For these assays, compounds of the invention were screened by Invitrogen using Z′-Lyte™ kinase assay.
Briefly, the Invitrogen kinase assay involves use of a specific peptide substrate optimized for each kinase, containing a fluorophore at each end that make up the FRET pair. The peptide sensitivity to proteolytic cleavage depends on phosphorylation of the peptide. Non-phosphorylated peptide is cleaved by a protease while peptide phosphorylated by the kinase is not cleaved. Cleavage of the peptide disrupts the FRET between the donor (coumarin) and acceptor (fluorescein) fluorophores, resulting in an increase in the ratio of donor emission to acceptor emission. The emission ratio of coumarin to fluorescein is used to assess the reaction progress. The extent of phosphorylation is determined from the emission ratio, which is low when the kinase is active (phosphorylated peptide is not cleaved, FRET pair connected) or higher for inhibited kinase (non-phosphorylated peptide is cleaved, FRET pair separated). Thus, the assay involves a kinase reaction in the presence of varying concentrations of a given compound, a development reaction with site specific protease, and detection of the fluorescent emission ratio of coumarin and fluorscein. […] Reaction conditions for each kinase are determined to provide optimal reaction times, incubation temperature, kinase and ATP concentrations. Test samples are made up in 1× kinase buffer (50 mM HEPES pH 7.5, 50 mM MgCl2, 5 mM EGTA, 0.05% BRIJ-35) and compound at desired concentration prepared in DMSO such that the final DMSO is 1%. […] Typically, assay plates are prepared to 10 μl final volume per sample, adding 2.5 μl of compound at 4× the desired concentration in 4% DMSO (serial dilution of compound provides concentration curve), 5 μl of the desired kinase mixed with Z′-LYTE™ peptide substrate (2× in 2× kinase buffer, final peptide at 2 μM), and 2.5 μl of 4×ATP solution. All kinase except for MAP2K1 were at 10 μM ATP in the kinase reaction, while MAP2K1 was at 100 μM. Samples are mixed and the kinase reaction is incubated 1 hour at room temperature, after which 5 μl of development solution is added and mixed. After incubation for another 1 hour at room temperature, 5 μl of stop reagent is added to each sample and mixed. The fluorescence signals are measured to determine the emission ratio.

Kdr = biological target: T2, Kdr (Homo sapiens, UniProt P35968); assay: Z'-Lyte FRET kinase assay (Invitrogen), Kdr; details: read-out: IC50, activity toward kinase Kdr
T2 construct: purchased Invitrogen (assay run by Invitrogen)
T2 sequence (P35968 20-1356): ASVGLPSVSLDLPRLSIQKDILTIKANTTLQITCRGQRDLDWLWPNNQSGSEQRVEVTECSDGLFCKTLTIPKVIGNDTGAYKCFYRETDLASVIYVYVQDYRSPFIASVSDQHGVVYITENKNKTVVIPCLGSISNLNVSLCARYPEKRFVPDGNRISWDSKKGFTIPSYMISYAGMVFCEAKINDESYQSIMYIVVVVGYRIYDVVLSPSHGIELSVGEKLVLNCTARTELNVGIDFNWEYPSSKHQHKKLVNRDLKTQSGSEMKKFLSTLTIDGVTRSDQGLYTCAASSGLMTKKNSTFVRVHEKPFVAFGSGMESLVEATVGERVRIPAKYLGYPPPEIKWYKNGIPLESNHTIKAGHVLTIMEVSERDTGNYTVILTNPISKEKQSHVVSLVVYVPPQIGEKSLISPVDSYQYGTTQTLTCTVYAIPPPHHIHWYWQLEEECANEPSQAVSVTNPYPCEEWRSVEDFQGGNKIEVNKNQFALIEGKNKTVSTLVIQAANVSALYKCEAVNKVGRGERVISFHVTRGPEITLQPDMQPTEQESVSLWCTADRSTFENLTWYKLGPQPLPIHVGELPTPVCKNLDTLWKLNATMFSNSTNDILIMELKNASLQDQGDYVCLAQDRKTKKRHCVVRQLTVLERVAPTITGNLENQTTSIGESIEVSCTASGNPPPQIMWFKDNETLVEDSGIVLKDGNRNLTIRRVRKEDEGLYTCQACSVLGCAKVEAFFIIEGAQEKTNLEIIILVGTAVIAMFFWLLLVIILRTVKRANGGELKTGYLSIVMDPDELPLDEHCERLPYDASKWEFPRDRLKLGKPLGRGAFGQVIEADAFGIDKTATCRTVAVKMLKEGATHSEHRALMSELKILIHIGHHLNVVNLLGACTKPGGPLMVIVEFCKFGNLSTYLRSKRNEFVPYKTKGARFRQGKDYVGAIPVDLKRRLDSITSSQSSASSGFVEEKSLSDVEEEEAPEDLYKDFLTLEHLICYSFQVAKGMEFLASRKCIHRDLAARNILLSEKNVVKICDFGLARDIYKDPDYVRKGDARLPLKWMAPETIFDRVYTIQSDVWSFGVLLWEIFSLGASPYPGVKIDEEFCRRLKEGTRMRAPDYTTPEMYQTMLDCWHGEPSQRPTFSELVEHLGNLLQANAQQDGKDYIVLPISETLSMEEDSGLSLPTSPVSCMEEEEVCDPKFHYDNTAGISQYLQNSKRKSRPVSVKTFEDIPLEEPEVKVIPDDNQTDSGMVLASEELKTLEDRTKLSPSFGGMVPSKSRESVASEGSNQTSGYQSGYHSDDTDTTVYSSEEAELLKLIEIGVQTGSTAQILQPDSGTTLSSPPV

MAP2K1 = biological target: T3, MAP2K1 (Homo sapiens, UniProt Q02750); assay: Z'-Lyte FRET kinase assay (Invitrogen), MAP2K1; details: read-out: IC50, activity toward kinase MAP2K1
T3 construct: purchased Invitrogen (assay run by Invitrogen)
T3 sequence (Q02750 whole entry): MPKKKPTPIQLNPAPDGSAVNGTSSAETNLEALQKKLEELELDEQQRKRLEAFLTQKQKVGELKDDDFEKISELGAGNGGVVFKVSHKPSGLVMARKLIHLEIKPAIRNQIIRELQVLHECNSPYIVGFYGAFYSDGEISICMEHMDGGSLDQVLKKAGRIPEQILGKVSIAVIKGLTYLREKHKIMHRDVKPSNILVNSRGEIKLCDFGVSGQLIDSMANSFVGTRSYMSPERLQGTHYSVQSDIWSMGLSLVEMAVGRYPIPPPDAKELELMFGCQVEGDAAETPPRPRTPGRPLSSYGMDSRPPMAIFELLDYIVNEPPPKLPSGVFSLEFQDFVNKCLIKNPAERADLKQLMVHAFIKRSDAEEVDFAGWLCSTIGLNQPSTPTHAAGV

Met = biological target: T4, Met (Homo sapiens, UniProt P08581); assay: AlphaScreen kinase assay, Met; details: read-out: IC50, activity toward kinase Met
T4 construct: P1818.pETN6 BI-PTP MET G1056-G1364-X WT; His6 (N); made in house; host or cells: E. coli (PTP1B co-expressed)
T4 sequence (P08581 with tags, fused parts or gaps): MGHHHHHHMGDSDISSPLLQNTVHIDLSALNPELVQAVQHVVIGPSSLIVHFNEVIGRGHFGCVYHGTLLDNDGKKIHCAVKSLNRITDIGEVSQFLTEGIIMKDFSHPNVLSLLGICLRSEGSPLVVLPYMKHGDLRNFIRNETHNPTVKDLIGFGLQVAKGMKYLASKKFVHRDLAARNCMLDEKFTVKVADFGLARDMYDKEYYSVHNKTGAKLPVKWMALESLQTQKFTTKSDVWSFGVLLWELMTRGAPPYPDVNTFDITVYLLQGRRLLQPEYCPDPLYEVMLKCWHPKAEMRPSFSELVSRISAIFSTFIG
Outline: (§1)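 Kinase activity was measured as phosphorylation of a biotinylated peptide, detected with streptavidin donor and phospho-antibody acceptor beads. Compounds, from 20 mM DMSO stocks, were tested at eight concentrations in 1:3 serial dilution.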

Stk6 = biological target: T5, Stk6 (Homo sapiens, UniProt O14965); assay: Z'-Lyte FRET kinase assay (Invitrogen), Stk6; details: read-out: IC50, activity toward kinase Stk6
T5 construct: purchased Invitrogen (Carlsbad, Calif.), screening service
T5 sequence (O14965 1-403): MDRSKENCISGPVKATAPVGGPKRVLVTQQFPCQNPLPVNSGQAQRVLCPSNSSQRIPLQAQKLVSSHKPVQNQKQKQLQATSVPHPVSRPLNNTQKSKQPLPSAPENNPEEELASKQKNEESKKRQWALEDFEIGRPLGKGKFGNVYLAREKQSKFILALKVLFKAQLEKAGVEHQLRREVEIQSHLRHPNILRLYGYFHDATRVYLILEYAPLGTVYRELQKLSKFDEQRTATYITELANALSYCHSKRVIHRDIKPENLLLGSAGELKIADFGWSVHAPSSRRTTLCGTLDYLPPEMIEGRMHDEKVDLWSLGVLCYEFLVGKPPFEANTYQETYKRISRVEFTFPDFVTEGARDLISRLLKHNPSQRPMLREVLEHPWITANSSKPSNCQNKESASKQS

IKK beta = biological target: T6, IKK beta (Homo sapiens, UniProt O14920); assay: AlphaScreen kinase assay, IKK beta; details: read-out: IC50, activity toward kinase IKK beta
T6 sequence (O14920 1-756): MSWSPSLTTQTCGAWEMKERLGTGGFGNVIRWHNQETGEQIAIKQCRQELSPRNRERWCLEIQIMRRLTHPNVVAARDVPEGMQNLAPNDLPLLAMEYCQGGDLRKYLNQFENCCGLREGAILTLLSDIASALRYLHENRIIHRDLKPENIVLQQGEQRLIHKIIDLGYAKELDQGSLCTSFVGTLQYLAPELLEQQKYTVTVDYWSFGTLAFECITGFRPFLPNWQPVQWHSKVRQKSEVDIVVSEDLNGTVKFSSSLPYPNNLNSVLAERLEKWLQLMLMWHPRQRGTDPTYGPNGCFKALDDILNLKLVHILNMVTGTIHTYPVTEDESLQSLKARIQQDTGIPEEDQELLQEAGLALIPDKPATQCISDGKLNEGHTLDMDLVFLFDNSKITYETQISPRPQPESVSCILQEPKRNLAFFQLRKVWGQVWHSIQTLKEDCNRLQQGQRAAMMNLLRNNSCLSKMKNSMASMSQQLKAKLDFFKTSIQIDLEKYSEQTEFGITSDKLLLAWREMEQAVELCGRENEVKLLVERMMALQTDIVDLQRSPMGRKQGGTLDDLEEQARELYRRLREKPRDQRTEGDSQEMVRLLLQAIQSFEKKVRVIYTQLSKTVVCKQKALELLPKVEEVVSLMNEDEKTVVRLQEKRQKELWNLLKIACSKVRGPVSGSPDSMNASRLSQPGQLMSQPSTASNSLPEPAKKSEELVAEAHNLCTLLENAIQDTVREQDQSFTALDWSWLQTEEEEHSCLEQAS

Flt1 = biological target: T7, Flt1 (Homo sapiens, UniProt P17948); assay: AlphaScreen kinase assay, Flt1; details: read-out: IC50, activity toward kinase Flt1
T7 construct: P1826.pETN6 BI-PTP FLT1 M799-D1165-X WT; His6 (N); made in house; host or cells: E. coli (PTP1B co-expressed)
T7 sequence (P17948 with tags, fused parts or gaps): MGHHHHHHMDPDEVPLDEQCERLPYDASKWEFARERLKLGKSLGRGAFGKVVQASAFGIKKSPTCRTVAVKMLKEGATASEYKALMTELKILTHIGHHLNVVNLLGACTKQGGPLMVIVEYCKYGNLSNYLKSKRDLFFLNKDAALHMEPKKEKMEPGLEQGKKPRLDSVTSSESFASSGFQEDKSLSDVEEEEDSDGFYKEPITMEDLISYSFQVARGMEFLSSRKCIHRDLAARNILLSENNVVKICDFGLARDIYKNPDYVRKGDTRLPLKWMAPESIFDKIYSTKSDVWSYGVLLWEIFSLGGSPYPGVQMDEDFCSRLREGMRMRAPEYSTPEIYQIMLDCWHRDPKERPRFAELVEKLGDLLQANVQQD

MAP4K4 = MAP4K4 (Homo sapiens, UniProt O95819); assay: AlphaScreen kinase assay, MAP4K4; details: read-out: IC50, activity toward kinase MAP4K4
MAP4K4, sequence (O95819 whole entry): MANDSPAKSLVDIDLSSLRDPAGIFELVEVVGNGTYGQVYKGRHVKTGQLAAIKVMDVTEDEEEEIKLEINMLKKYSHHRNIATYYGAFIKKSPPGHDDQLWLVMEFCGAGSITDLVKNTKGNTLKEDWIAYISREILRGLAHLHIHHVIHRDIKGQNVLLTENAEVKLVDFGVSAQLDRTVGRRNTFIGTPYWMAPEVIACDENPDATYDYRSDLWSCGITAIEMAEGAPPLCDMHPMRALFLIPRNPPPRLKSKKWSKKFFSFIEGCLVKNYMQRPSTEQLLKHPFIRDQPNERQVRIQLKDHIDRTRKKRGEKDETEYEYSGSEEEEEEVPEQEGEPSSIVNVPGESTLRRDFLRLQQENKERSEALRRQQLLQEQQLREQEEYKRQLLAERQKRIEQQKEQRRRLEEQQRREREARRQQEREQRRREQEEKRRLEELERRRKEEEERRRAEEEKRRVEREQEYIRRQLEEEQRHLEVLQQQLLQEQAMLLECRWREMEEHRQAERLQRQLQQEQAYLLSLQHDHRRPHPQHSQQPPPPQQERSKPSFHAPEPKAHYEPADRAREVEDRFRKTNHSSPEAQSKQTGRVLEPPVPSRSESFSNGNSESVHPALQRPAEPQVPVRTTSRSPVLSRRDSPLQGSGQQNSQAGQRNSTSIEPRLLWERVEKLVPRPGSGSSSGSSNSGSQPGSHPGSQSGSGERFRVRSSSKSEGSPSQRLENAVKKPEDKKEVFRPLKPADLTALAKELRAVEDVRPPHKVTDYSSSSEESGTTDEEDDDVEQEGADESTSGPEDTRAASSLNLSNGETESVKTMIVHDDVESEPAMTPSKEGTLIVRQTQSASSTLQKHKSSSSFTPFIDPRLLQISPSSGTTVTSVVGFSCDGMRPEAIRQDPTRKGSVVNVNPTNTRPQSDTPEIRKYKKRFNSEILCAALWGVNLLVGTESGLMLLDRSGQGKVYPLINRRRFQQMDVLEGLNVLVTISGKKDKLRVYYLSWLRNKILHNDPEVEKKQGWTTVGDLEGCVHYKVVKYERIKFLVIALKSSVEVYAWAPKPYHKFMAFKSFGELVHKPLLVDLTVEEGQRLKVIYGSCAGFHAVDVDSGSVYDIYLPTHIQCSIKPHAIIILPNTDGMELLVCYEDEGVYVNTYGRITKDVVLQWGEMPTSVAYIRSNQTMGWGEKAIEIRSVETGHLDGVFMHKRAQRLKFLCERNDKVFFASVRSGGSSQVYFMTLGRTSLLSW

Kit = biological target: T8, Kit (Homo sapiens, UniProt P10721); assay: AlphaScreen kinase assay, Kit; details: read-out: IC50, activity toward kinase Kit
T8 construct: P1332.N6 BI PTP KIT M552-K948-X COD; His6 (N); made in house; host or cells: E. coli (PTP1B co-expressed)
T8 sequence (P10721 with tags, fused parts or gaps): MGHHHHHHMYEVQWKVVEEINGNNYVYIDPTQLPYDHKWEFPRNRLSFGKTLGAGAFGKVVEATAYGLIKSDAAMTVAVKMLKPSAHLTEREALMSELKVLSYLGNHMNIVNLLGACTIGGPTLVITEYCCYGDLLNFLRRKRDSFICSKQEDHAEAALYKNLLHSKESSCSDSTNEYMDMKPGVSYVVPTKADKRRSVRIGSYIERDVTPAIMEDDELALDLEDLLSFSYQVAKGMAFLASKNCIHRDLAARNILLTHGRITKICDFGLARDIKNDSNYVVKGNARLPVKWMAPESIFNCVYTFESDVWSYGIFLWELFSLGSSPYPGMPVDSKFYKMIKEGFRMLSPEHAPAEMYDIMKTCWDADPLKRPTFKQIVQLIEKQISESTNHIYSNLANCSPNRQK

p38 = biological target: T9, p38 (Homo sapiens, UniProt Q16539); assay: AlphaScreen kinase assay, p38; details: read-out: IC50, activity toward kinase p38
T9 construct: P4292.pET15S P38A M1-S360-X MKK6DD; His6 with thrombin site (N); made in house
T9 sequence (Q16539 with tags, fused parts or gaps): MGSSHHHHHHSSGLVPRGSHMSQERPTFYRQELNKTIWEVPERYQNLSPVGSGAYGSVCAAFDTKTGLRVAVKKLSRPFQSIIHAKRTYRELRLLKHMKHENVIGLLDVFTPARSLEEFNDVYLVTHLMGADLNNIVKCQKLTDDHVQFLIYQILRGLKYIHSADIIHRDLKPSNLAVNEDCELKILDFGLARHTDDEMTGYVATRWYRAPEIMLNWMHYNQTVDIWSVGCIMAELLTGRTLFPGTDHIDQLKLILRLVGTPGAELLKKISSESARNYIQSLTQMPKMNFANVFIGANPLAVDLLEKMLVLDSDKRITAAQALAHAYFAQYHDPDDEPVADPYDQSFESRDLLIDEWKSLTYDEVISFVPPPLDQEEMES

Abl = biological target: T10, Abl (Homo sapiens, UniProt P00519); assay: AlphaScreen kinase assay, Abl; details: read-out: activity toward kinase Abl, IC50
T10 construct: P1121. pET-SPEC BI-PTP Abl G227-V515-X; His6 (N); made in house; host or cells: E. coli (PTP1B co-expressed)
T10 sequence (P00519 with tags, fused parts or gaps): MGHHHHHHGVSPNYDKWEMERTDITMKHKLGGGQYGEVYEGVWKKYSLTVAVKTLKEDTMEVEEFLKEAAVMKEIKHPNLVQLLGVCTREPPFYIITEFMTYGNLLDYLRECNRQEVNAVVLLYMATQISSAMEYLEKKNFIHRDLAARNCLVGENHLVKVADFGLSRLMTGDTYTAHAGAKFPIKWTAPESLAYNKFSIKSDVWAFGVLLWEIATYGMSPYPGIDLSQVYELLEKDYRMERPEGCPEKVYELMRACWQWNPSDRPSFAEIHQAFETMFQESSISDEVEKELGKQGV
Outline: as §1

FGFR1 = biological target: T11, FGFR1 (Homo sapiens, UniProt P11362, C488A/C584S); assay: AlphaScreen kinase assay, FGFR1; details: read-out: IC50, activity toward kinase FGFR
T11 construct: P1351.pET N6 BI-PTP FGFR A458-E765-X C488A, C584S; made in house; host or cells: E. coli (PTP1B co-expressed)
T11 sequence (P11362 458-765 C488A/C584S): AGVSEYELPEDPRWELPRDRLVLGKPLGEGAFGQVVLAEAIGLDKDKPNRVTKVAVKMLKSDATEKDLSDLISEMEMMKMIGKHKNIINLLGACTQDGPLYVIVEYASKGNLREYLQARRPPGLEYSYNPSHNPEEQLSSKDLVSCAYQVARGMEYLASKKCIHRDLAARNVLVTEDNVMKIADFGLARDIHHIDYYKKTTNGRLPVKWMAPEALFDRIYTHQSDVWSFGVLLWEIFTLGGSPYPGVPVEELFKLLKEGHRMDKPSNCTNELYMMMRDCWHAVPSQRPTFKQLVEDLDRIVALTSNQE

Flt4 = biological target: T12, Flt4 (Homo sapiens, UniProt P35916); assay: AlphaScreen kinase assay, Flt4; details: read-out: IC50, activity toward kinase Flt4
T12 construct: purchased ProQinase GmbH (Freiburg, Germany)
Outline: as §1

Ret = biological target: T13, Ret (Homo sapiens, UniProt P07949); assay: AlphaScreen kinase assay, Ret; details: read-out: IC50, activity toward kinase Ret
T13 construct: P1378.pET-SF BI-PTP RET H661-R1012 HIS; made in house
T13 sequence (P07949 with tags, fused parts or gaps): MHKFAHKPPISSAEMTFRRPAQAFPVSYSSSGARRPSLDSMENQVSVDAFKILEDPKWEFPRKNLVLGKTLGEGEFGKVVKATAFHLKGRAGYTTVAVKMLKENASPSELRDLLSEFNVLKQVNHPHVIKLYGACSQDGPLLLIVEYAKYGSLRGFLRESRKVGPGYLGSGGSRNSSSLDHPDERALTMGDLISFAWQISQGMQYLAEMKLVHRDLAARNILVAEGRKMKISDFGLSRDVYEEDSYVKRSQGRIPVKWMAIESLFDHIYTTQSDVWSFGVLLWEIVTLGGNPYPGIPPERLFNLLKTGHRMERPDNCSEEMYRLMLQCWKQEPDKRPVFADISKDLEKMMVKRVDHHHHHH

| IC50 (Irak4) | IC50 (Kdr) | IC50 (MAP2K1) | IC50 (Stk6) | IC50 (Flt1) | IC50 (Kit) | IC50 (p38) | Compound | other results |
| --- | --- | --- | --- | --- | --- | --- | --- | --- |
| ≤ 10 µM | ≤ 10 µM | ≤ 10 µM | ≤ 10 µM |  |  |  | CC(=O)Nc1cccc(-c2c[nH]c3ncccc23)c1 [Compound P-0076] | IC50 (Met): ≤ 10 µM |
| ≤ 10 µM | ≤ 10 µM | ≤ 10 µM | ≤ 10 µM |  |  |  | OCc1cccc(-c2c[nH]c3ncccc23)c1 [Compound P-0087] | IC50 (IKK beta): ≤ 10 µM |
| ≤ 10 µM | ≤ 10 µM |  | ≤ 10 µM | ≤ 10 µM |  |  | Nc1cccc(-c2c[nH]c3ncccc23)c1 [Compound P-0091] |  |
| ≤ 10 µM | ≤ 10 µM |  |  |  |  |  | c1cnc2[nH]cc(-c3ccncc3)c2c1 [Compound P-0130] | IC50 (MAP4K4): ≤ 10 µM |
|  |  |  |  |  | ≤ 10 µM | ≤ 10 µM | Brc1ccc(/C=C\c2c[nH]c3ncccc23)cc1 [Compound P-0511] |  |
|  | ≤ 10 µM |  |  | ≤ 10 µM | ≤ 10 µM | ≤ 10 µM | O=C(c1ccccc1F)c1c[nH]c2ncc(-c3cccnc3)cc12 [Compound P-0708] | IC50 (Abl): ≤ 10 µM; IC50 (FGFR1): ≤ 10 µM; IC50 (Flt4): ≤ 10 µM; IC50 (Ret): ≤ 10 µM |
